{"source": "ChEMBL document CHEMBL4673222", "about": "“Discovery of a Bioactive Inhibitor with a New Scaffold for Cystathionine γ-Lyase” (J Med Chem, 2019)", "key": {"Rattus norvegicus [1]": {"test_system": "Rattus norvegicus", "assay": "Inhibition of CSE in Sprague-Dawley rat model of hemorrhagic shock assessed as increase in plasma H-cys level at 50 mg/kg, ip after 45 mins by ELISA", "type": "functional, organism-based"}, "Rattus norvegicus [2]": {"test_system": "Rattus norvegicus", "assay": "Inhibition of CSE in Sprague-Dawley rat model of hemorrhagic shock assessed as reduction in plasma H2S level at 50 mg/kg, ip after 45 mins by methylene blue dye based method", "type": "functional, organism-based"}, "Rattus norvegicus [3]": {"test_system": "Rattus norvegicus", "assay": "Reversal of hypotension in Sprague-Dawley rat model of hemorrhagic shock assessed as mean artery pressure level at 50 mg/kg, ip after 45 mins (reference value: 35.8 mmHg)", "type": "functional", "conditions": "0.75 h"}, "RAW264.7": {"test_system": "RAW264.7", "assay": "Toxicity in mouse RAW264.7 cells assessed as cell viability up to 100 uM incubated for 12 to 24 hrs by CellTiter96 aqueous one solution cell proliferation assay", "type": "cell-based", "conditions": "time 12-24 hrs"}, "[4]": {"target": "T1, Cystathionine gamma-lyase (Homo sapiens, UniProt P32929)", "T1 sequence (P32929 whole entry)": "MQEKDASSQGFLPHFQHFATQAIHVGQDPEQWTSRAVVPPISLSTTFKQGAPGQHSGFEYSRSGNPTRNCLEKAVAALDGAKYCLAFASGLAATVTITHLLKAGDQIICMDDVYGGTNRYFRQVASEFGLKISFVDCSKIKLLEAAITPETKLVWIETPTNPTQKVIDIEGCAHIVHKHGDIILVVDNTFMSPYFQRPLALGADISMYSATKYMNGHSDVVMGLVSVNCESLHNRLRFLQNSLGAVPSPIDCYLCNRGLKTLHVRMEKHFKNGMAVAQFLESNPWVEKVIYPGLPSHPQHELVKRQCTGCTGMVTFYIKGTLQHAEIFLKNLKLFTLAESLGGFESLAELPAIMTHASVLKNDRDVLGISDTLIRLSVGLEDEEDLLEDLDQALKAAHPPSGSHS", "assay": "Inhibition of human CSE expressed in HEK293T cells assessed as reduction in H2S contents at 20 to 50 uM by lead acetate assay", "type": "cell-based", "conditions": "dose 20-50 µM"}, "HEK-293T": {"test_system": "HEK-293T", "assay": "Toxicity in HEK293T cells assessed as cell viability up to 100 uM incubated for 12 to 24 hrs by CellTiter96 aqueous one solution cell proliferation assay", "type": "cell-based", "conditions": "human, time 12-24 hrs"}, "[5]": {"test_system": "Cystathionine gamma-lyase (Homo sapiens), P32929 [Y114F]", "sequence (P32929 whole entry Y114F)": "as the sequence (P32929 whole entry) above, with Y114F counted along it", "assay": "Inhibition of human CSE Y114F mutant expressed in HEK293T cells assessed as reduction in H2S contents at 200 to 500 uM by lead acetate assay", "type": "cell-based", "conditions": "dose 200-500 µM"}, "[6]": {"target": "T2, Cystathionine beta-synthase (Homo sapiens, UniProt P35520)", "T2 sequence (P35520 whole entry)": "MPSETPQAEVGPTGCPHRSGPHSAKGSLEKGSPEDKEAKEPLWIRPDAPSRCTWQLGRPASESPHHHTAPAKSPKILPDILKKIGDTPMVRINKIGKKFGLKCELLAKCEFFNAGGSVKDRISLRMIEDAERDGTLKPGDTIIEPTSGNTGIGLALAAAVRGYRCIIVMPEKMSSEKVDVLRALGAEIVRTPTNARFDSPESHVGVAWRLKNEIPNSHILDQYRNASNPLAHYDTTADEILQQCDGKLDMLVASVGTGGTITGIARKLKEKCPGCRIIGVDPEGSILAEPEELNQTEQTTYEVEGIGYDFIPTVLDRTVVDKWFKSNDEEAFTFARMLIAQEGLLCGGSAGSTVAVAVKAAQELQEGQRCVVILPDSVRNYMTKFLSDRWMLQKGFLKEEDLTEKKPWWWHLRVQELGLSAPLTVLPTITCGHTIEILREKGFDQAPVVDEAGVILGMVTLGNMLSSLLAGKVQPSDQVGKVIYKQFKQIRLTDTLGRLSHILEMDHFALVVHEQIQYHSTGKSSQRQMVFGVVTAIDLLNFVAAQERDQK", "assay": "Inhibition of wild type human CBS expressed in HEK293T cells assessed as reduction in H2S contents", "type": "cell-based"}, "[7]": {"target": "Cystathionine gamma-lyase (Homo sapiens, UniProt P32929, R119K)", "sequence (P32929 whole entry R119K)": "as the sequence (P32929 whole entry) above, with R119K counted along it", "assay": "Inhibition of human CSE R119K mutant expressed in HEK293T cells assessed as reduction in H2S contents", "type": "cell-based"}, "Homo sapiens [8]": {"organism": "Homo sapiens", "assay": "Selectivity index, ratio of IC50 for human CSE Y114F mutant expressed in HEK293T cells to IC50 for wild type human CSE expressed in HEK293T cells", "type": "cell-based"}, "Homo sapiens [9]": {"organism": "Homo sapiens", "assay": "Selectivity index, ratio of IC50 for human CSE R119A mutant expressed in HEK293T cells to IC50 for wild type human CSE expressed in HEK293T cells", "type": "cell-based"}, "[10]": {"target": "T1, Cystathionine gamma-lyase", "assay": "Inhibition of wild type human CSE expressed in HEK293T cells assessed as reduction in H2S contents", "type": "cell-based"}, "[11]": {"target": "T1, Cystathionine gamma-lyase", "assay": "Inhibition of human CSE expressed in mouse RAW264.7 cells assessed as reduction in amount of released H2S level at 20 to 50 uM by lead acetate method", "type": "cell-based", "conditions": "dose 20-50 µM"}, "[12]": {"target": "Cystathionine gamma-lyase (Mus musculus) (UniProt Q8VCN5)", "sequence (Q8VCN5 whole entry)": "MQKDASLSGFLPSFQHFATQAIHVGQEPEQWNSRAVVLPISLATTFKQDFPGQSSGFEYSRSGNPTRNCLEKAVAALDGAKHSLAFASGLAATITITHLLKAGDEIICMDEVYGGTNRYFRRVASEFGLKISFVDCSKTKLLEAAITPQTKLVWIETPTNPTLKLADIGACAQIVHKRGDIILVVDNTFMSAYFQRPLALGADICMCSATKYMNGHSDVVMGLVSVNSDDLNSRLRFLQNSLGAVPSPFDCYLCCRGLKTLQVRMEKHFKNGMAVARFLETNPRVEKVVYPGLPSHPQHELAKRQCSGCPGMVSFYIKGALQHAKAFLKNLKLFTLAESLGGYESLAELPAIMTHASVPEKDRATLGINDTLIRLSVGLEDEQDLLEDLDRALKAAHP", "assay": "Inhibition of CSE in mouse RAW264.7 cells assessed as reduction in amount of released H2S level at 20 to 50 uM by lead acetate method", "type": "cell-based", "conditions": "dose 20-50 µM"}, "Homo sapiens [13]": {"organism": "Homo sapiens", "assay": "Selectivity index, ratio of Ki for human CSE R119K mutant to Ki for wild type human CSE"}, "[14]": {"target": "Cystathionine gamma-lyase (Mus musculus) (UniProt Q8VCN5)", "assay": "(§1) Inhibition of CSE in mouse RAW264.7 cells assessed as reduction in endogenous H2S level by AzMC probe based fluorescence assay", "type": "cell-based"}, "[15]": {"target": "Cystathionine gamma-lyase (Mus musculus, UniProt Q8VCN5)", "sequence (Q8VCN5 whole entry)": "as above", "assay": "as §1", "type": "cell-based"}, "Homo sapiens [16]": {"organism": "Homo sapiens", "assay": "Selectivity index, ratio of Ki for human CSE R119A mutant to Ki for wild type human CSE"}, "Homo sapiens [17]": {"organism": "Homo sapiens", "assay": "Selectivity index, ratio of Ki for human CSE Y114F mutant to Ki for wild type human CSE"}, "Homo sapiens [18]": {"organism": "Homo sapiens", "assay": "Selectivity index, ratio of IC50 for human CSE R119A mutant to IC50 for wild type human CSE"}, "Homo sapiens [19]": {"organism": "Homo sapiens", "assay": "Selectivity index, ratio of IC50 for human CSE Y114A mutant to IC50 for wild type human CSE"}, "Homo sapiens [20]": {"organism": "Homo sapiens", "assay": "Selectivity index, ratio of IC50 for human CSE R62A mutant to IC50 for wild type human CSE"}, "[21]": {"target": "T1, Cystathionine gamma-lyase", "assay": "Competitive inhibition of human CSE using varying levels of L-Cys as substrate and fixed PLP levels"}, "[22]": {"target": "T1, Cystathionine gamma-lyase", "assay": "Effect on PLP interaction with human CSE assessed as effect on spectra of CSE-bound PLP"}, "[23]": {"target": "T1, Cystathionine gamma-lyase", "assay": "Non-competitive inhibition of human CSE using varying levels of PLP and fixed L-Cys as substrate"}, "[24]": {"target": "T1, Cystathionine gamma-lyase", "assay": "Binding affinity to human CSE by ITC analysis"}, "[25]": {"target": "T1, Cystathionine gamma-lyase", "assay": "Inhibition of human CSE by methylene blue method"}, "[26]": {"target": "T1, Cystathionine gamma-lyase", "assay": "Non-covalent reversible inhibition of human CSE"}, "[27]": {"target": "T2, Cystathionine beta-synthase", "assay": "Inhibition of CBS (unknown origin) by AzMC based fluorescence assay"}, "[28]": {"target": "T2, Cystathionine beta-synthase", "assay": "Inhibition of human CBS by methylene blue method"}, "[29]": {"target": "T1, Cystathionine gamma-lyase", "assay": "Inhibition of human CSE using H-Cys as the substrate by tandem well based HTS assay"}, "[30]": {"target": "T2, Cystathionine beta-synthase", "assay": "Inhibition of CBS (unknown origin) by methylene blue method"}, "[31]": {"target": "T1, Cystathionine gamma-lyase", "assay": "Inhibition of human CSE using H-Cys as the substrate by LC/MS/MS-based assay"}, "[32]": {"target": "T1, Cystathionine gamma-lyase", "assay": "Inhibition of human CSE using L-Cys as the substrate in presence of 0.01% Triton X-100 by tandem well based HTS assay"}, "[33]": {"target": "T1, Cystathionine gamma-lyase", "assay": "Inhibition of human CSE using L-Cys as the substrate in presence of 0.025% Triton X-100 by tandem well based HTS assay"}, "Homo sapiens [34]": {"organism": "Homo sapiens", "assay": "Selectivity index, ratio of IC50 for human CBS to IC50 for human DDC"}, "[35]": {"target": "T1, Cystathionine gamma-lyase", "assay": "Inhibition of human CSE using L-Cys as the substrate by tandem well based HTS assay"}}, "note": "Calls of active or inactive are those of the source. No cut-off for these calls is given here."}
{"smiles": "O=C(O)C1=CC(=C(c2ccc(O)c(C(=O)O)c2)c2ccc(O)c(C(=O)O)c2)C=CC1=O", "note": "[AURINTRICARBOXYLIC ACID]", "values": [{"measurement": "inhibition", "setting": "Rattus norvegicus [1]", "value": "Active"}, {"measurement": "inhibition", "setting": "Rattus norvegicus [2]", "value": "Active"}, {"measurement": "Activity", "setting": "Rattus norvegicus [3]", "value": 65, "unit": "mmHg"}, {"measurement": "Activity", "setting": "RAW264.7", "value": "Non-Toxic"}, {"measurement": "inhibition", "setting": "[4]", "value": "Active"}, {"measurement": "Activity", "setting": "HEK-293T", "value": "Non-Toxic"}, {"measurement": "inhibition", "setting": "[5]", "value": "inactive"}, {"measurement": "IC50", "setting": "[6]", "value": "> 650", "unit": "µM"}, {"measurement": "IC50", "setting": "[7]", "value": 245, "unit": "µM"}, {"measurement": "Ratio IC50", "setting": "Homo sapiens [8]", "value": 6}, {"measurement": "Ratio IC50", "setting": "Homo sapiens [9]", "value": 6}, {"measurement": "IC50", "setting": "[10]", "value": 34.7, "unit": "µM"}, {"measurement": "inhibition", "setting": "[10]", "value": "Dose-dependent effect"}, {"measurement": "inhibition", "setting": "[11]", "value": "Active"}, {"measurement": "inhibition", "setting": "[12]", "value": "Active"}, {"measurement": "Ratio Ki", "setting": "Homo sapiens [13]", "value": 40.5}, {"measurement": "inhibition", "setting": "[14]", "value": "Dose-dependent effect"}, {"measurement": "IC50", "setting": "[15]", "value": 43.2, "unit": "µM"}, {"measurement": "Ratio Ki", "setting": "Homo sapiens [16]", "value": 52}, {"measurement": "Ratio Ki", "setting": "Homo sapiens [17]", "value": 44.5}, {"measurement": "Ratio IC50", "setting": "Homo sapiens [18]", "value": 32}, {"measurement": "Ratio IC50", "setting": "Homo sapiens [19]", "value": "> 10"}, {"measurement": "Ratio IC50", "setting": "Homo sapiens [20]", "value": "> 10"}, {"measurement": "Ki", "setting": "[21]", "value": 0.6, "unit": "µM"}, {"measurement": "Activity", "setting": "[22]", "value": "inactive"}, {"measurement": "alphaKi", "setting": "[23]", "value": 4.2, "unit": "µM"}, {"measurement": "Kd", "setting": "[24]", "value": 3.4, "unit": "µM"}, {"measurement": "IC50", "setting": "[25]", "value": 2.6, "unit": "µM"}, {"measurement": "inhibition", "setting": "[26]", "value": "Active"}, {"measurement": "IC50", "setting": "[27]", "value": 3, "unit": "µM"}, {"measurement": "IC50", "setting": "[28]", "value": 54.2, "unit": "µM"}, {"measurement": "IC50", "setting": "[29]", "value": 1.7, "unit": "µM"}, {"measurement": "IC50", "setting": "[30]", "value": 20, "unit": "µM"}, {"measurement": "IC50", "setting": "[31]", "value": 3.3, "unit": "µM"}, {"measurement": "inhibition", "setting": "[31]", "value": "Dose-dependent effect"}, {"measurement": "IC50", "setting": "[32]", "value": 1.8, "unit": "µM"}, {"measurement": "IC50", "setting": "[33]", "value": 1.8, "unit": "µM"}, {"measurement": "Ratio IC50", "setting": "Homo sapiens [34]", "value": 143}, {"measurement": "IC50", "setting": "[35]", "value": 0.6, "unit": "µM"}]}
